Data: patent publication US9464064B2, “HCV helicase inhibitors and methods of use thereof” (University of Kansas, priority 2011, dated 2016)
Positions of bridges follow the written chain, without caps; N, C: chain ends. Non-standard residues stand in square brackets, D forms with d. Residues, ends and D or L forms follow the SMILES beside them. ξ: configuration not given here. *: point of attachment. ξNMePhe(4-NMe2) = CNC(Cc1ccc(N(C)C)cc1)C(=O)O; Picolinoyl(3-OH) = O=C(c1ncccc1O)*; ξPip(4-oxo) = O=C1CCNC(C(=O)O)C1; Phg = N[CH](C(=O)O)c1ccccc1; Abu = CC[CH](N)C(=O)O

Molecular target: T1, HCV NS3 helicase NS3h_1b(con1) (Hepatitis C virus genotype 1b, UniProt Q9WMX2)
T1 construct: truncated C-terminally His-tagged NS3 proteins lacking the N-terminal protease, called NS3h; His-tag (C); made in house
Assay: MBHA screen of NCI mechanistic set library at 20 μM (percent inhibition, compound interference)
Format: biochemical
Conditions: compounds at 20 μM; for Inh. (%) (Inhibition): calculated from Equation 1
Method in brief: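 Molecular beacon-based DNA unwinding assay; compounds screened at 20 μM in triplicate, with DMSO-only negative and 500 nM dT20 positive controls. Fluorescence (ex 643/em 670 nm) was read before and 30 min after adding ATP to 1 mM. Percent inhibition came from the change relative to DMSO controls; interference from pre-ATP fluorescence versus DMSO controls.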

[1] = MBHA with DNA substrate, assay interference calculated with Equation 2
[2] = assay interference calculated with Equation 2 (fluorescence vs DMSO-only controls before ATP)

T1 sequence (Q9WMX2 1192-1657): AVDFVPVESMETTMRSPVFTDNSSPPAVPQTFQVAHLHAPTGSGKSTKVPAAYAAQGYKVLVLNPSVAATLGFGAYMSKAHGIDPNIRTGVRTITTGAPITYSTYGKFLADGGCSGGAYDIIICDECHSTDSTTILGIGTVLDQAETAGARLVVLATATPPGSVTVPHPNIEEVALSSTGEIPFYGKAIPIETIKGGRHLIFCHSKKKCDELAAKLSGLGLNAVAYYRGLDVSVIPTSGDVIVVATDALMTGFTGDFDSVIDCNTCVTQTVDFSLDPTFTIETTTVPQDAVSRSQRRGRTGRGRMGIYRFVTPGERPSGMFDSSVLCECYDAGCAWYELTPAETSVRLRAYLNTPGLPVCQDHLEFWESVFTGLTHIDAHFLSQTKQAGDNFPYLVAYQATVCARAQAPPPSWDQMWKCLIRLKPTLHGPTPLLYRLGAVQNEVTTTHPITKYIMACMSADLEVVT

| Structure (SMILES) | Int.* (Ratio) (Interference) [1] | Inh. (%) (Inhibition) (MBHA with DNA substrate) | Inh. (%) (Inhibition) (MBHA with a DNA substrate) | Int.* (Ratio) (Interference) [2] |
| --- | --- | --- | --- | --- |
| CO[C@@H]1[C@@H](OC(=O)c2ccc(C)[nH]2)[C@@H](O)[C@H](Oc2ccc3c(O)c(NC(=O)c4c[nH]c(C(=O)Nc5c(O)c6ccc(O[C@@H]7OC(C)(C)[C@H](OC)[C@@H](OC(=O)c8ccc(C)[nH]8)[C@H]7O)c(C)c6oc5=O)c4C)c(=O)oc3c2C)OC1(C)C [Compound 107412] | 0.83 | 0.0 | – | – |
| O=C1C=C2C=CC3CC2(O1)C1CCCCN31 (stereo not drawn) [Compound 107415] | 0.97 | −15.2 | – | – |
| CCC1CN2CCc3cc(OC)c(OC)cc3C2CC1CC1c2cc(OC)c(OC)cc2CCN1C(=O)C(Cc1c[nH]c2ccccc12)NC(=O)OC(C)(C)C (stereo not drawn) [Compound 109350] | 0.92 | −9.3 | – | – |
| CN1CCCC2C(c3ccccc3)C(C3=NCCCC3)C(c3ccccc3)CC21.Cl (stereo not drawn) [Compound 109444] | – | – | 7.2 | 1.01 |
| N=C1C=C(N)C(=O)c2[nH]c(=O)ccc21 [Compound 111041] | – | – | −26.9 | 0.97 |
| CCOC(=O)c1cc2c(OC)cc(OC)cc2oc1=O [Compound 111119] | 1.16 | 6.3 | – | – |
| C=C(C)[C@@H]1CC[C@]2(C(=O)O)CC[C@]3(C)[C@H](CC[C@@H]4[C@@]5(C)CC[C@H](O)C(C)(C)[C@@H]5CC[C@]43C)[C@@H]12 [Compound 113090] | – | – | −29.5 | 1.00 |
| CC(C)(O)CCC(O)C(C)(O)C1CCC2(O)C3=CC(=O)C4(O)CC(O)C(O)CC4(C)C3CCC12C.CC(C)(O)CCC(O)C(C)(O)C1CCC2(O)C3=CC(=O)C4CC(O)C(O)CC4(C)C3CCC12C (stereo not drawn) [Compound 115493] | – | – | 7.3 | 0.94 |
| CCOC(=O)Cc1c(C)c2cc(C(=O)c3ccccc3)c(O)cc2oc1=O [Compound 115538] | 1.02 | −12.6 | – | – |
| Oc1[nH]c2ccccc2c1N=Nc1c(F)c(F)c(F)c(F)c1F [Compound 116535] | 0.93 | 5.9 | – | – |
| Cc1ccc([S+](c2ccccc2)c2cc(C)ccc2C)cc1.O=C(OC(C(=O)[O-])C(OC(=O)c1ccccc1)C(=O)O)c1ccccc1 (stereo not drawn) [Compound 116693] | 0.92 | −1.8 | – | – |
| Cc1ccc2[nH]c(O)c(N=Nc3ccccc3[N+](=O)[O-])c2c1 [Compound 117915] | 1.00 | 1.4 | – | – |
| Cc1ccc2[c](c1)[Sn]([c]1ccccc1)([c]1ccccc1)[c]1cc(C)ccc1N2C [Compound 118030] | 0.92 | −13.1 | – | – |
| Cc1ccc(C)c2c(N=Nc3ccccc3[N+](=O)[O-])c(O)[nH]c12 [Compound 118732] | 0.89 | 14.2 | – | – |
| Cc1ccc(Cl)c2c(N=Nc3ccccc3[N+](=O)[O-])c(O)[nH]c12 [Compound 118735] | – | – | −5.2 | 0.96 |
| CNc1nc(N(C)C)nc(N(C)C)n1 [Compound 118742] | – | – | 10.6 | 1.01 |
| S=C=NCc1ccccc1 [Compound 118976] | 0.96 | 13.9 | – | – |
| Cc1c2ccncc2c(C)c2c1sc1ccccc12 [Compound 119686] | – | – | 8.9 | 1.18 |
| N.N.[Cl][Pt][Cl] [Compound 119875] | 0.83 | 25.1 | – | – |
| CCCNC1=C(C)C(=O)C2=C(C1=O)[C@H](COC(N)=O)[C@]1(OC)[C@@H]3N[C@@H]3CN21 [Compound 123115] | – | – | −25.7 | 0.96 |
| Cc1c(N)nc([C@H](CC(N)=O)NC[C@H](N)C(N)=O)nc1C(=O)N[C@H](C(=O)N[C@H](C)[C@@H](O)[C@H](C)C(=O)N[C@H](C(=O)NCCc1nc(-c2nc(C(=O)NCCC[S+](C)C)cs2)cs1)[C@@H](C)O)[C@@H](OC1OC(CO)C(O)C(O)C1OC1OC(CO)C(O)C(OC(N)=O)C1O)c1cnc[nH]1 (stereo partly drawn) [Compound 125066] | 0.79 | 15.8 | – | – |

| Structure (SMILES) | Int.* (Ratio) (Interference) [1] | Inh. (%) (Inhibition) (MBHA with DNA substrate) | Inh. (%) (Inhibition) (MBHA with a DNA substrate) | Int.* (Ratio) (Interference) [2] |
| --- | --- | --- | --- | --- |
| CC1=C\C(O)CC(=O)Cc2nc(co2)C(=O)N2CCC=C2C(=O)OC(C(C)C)C(C)/C=C/C(=O)NC/C=C\1.CCC1NC(=O)C(NC(=O)c2ncccc2O)C(C)OC(=O)C(c2ccccc2)NC(=O)C2CC(=O)CCN2C(=O)C(Cc2ccc(N(C)C)cc2)N(C)C(=O)C2CCCN2C1=O (stereo not drawn) [Compound 125176] ({Picolinoyl(3-OH)}-T[Abu]P[ξNMePhe(4-NMe2)][ξPip(4-oxo)][Phg]; ester 1-C; configuration not given here) | – | – | −20.2 | 0.90 |
| O=C1C(=O)c2ccccc2C(O)=C1CC=C(Cl)Cl [Compound 126771] | 1.12 | −9.7 | – | – |
| COc1ccc(-c2cc(=O)c3c(O)cc(O)cc3o2)cc1OC [Compound 128305] | – | – | −4.3 | 0.99 |
| c1ccc2c(c1)nnn1c3cnccc3nc21 [Compound 128734] | – | – | −3.1 | 0.91 |
| CCC1=C(C[C@H]2NCCc3cc(OC)c(OC)cc32)C[C@H]2c3cc(OC)c(OC)cc3CCN2C1 [Compound 129414] | – | – | 12.0 | 1.08 |
| CC(CN1CC(=O)NC(=O)C1)N1CC(=O)NC(=O)C1 (stereo not drawn) [Compound 129943] | – | – | −5.2 | 1.13 |
| COC1=C(N)C(=O)c2nc(C)ccc2C1=O [Compound 132493] | – | – | −22.9 | 1.07 |
| CC[C@](C)(O)C(=O)O[C@H]1C(=O)O[C@@H]2C[C@H]3C(C)=CC(=O)[C@@H](O)[C@]3(C)[C@H]3C4(O)OC[C@]32[C@@H]1[C@@H](C)[C@H]4O [Compound 132791] | – | – | 8.2 | 0.98 |
| Br.COC1CN(C)C(=Nc2cccc3ccccc23)S1 (stereo not drawn) [Compound 135996] | 1.07 | −14.0 | – | – |
| CC1=CC23C(COC(=O)C24CO4)C(C(=O)O)=CC3C1C.NCc1ccccc1 (stereo not drawn) [Compound 136037] | 1.00 | 3.9 | – | – |
| CC[C@@]1(O)C[C@H](OC2CC(N(C)C)C(O)C(C)O2)c2c(O)c3c(c(O)c2[C@H]1OC1CC(N(C)C)C(O)C(C)O1)C(=O)c1cccc(O)c1C3=O (stereo partly drawn) [Compound 136044] | 0.33 | 47.9 | – | – |
| CCCC(=O)OCC1OC(n2ccc(N)nc2=O)C(OC(=O)CCC)C1OC(=O)CCC (stereo not drawn) [Compound 138429] | – | – | 10.9 | 1.09 |
| CCS(=O)(=O)O.CN(C)C(=O)c1cccc(COc2ccc(N3C(N)=NC(N)=NC3(C)C)cc2Cl)c1 [Compound 139105] | – | – | 7.0 | 0.98 |
| Cc1cccc(NC(=O)/C=C/c2ccc([N+](=O)[O-])cc2)c1 [Compound 139109] | 1.06 | −1.2 | – | – |
| CN1c2c(nc(N)[nH]c2=O)NCC1CCNc1ccc(C(=O)N[C@@H](CCC(=O)[O-])C(=O)[O-])cc1.[Na+].[Na+] (stereo partly drawn) [Compound 139490] | 0.95 | −13.8 | – | – |
| CC(C)=CCC(OC(=O)C=C(C)C)C1=CC(=O)c2c(O)ccc(O)c2C1=O (stereo not drawn) [Compound 140377] | – | – | 9.4 | 0.93 |
| O=S(=O)(c1cccc(N=C=S)c1)c1cccc(N=C=S)c1 [Compound 140911] | 0.99 | 3.1 | – | – |
| CCN(CC)CCNc1ccc(CO)c2sc3ccccc3c(=O)c12 [Compound 142982] | 0.75 | 53.1 | – | – |
| Cl.NC(=O)c1cn(C2OC(CO)C(O)C2O)c2ncnc(N)c12 (stereo not drawn) [Compound 143648] | – | – | −4.1 | 0.99 |
| C=C1C(=O)OCC2C(C(=O)O)=CC3C(C)C(C)=CC123 (stereo not drawn) [Compound 145150] | 1.12 | −11.3 | – | – |
| CC(C)(C)CC(C)(C)NCC(O)COc1ccc(C(C)(C)c2ccc(OCC(O)CNC(C)(C)CC(C)(C)C)cc2)cc1.Cl (stereo not drawn) [Compound 145366] | 0.53 | 33.1 | – | – |
